Assay results taken from patent US20220194959A1, “CRYSTAL FORM OF EGFR INHIBITOR AND PREPARATION METHOD THEREOF” (MEDSHINE DISCOVERY INC., priority 2019, published 2022).

Key:
Format in all cases: physicochemical
[1] = Hygroscopicity study by dynamic vapor sorption (DVS)
Procedure: 1.4. Dynamic Vapor Sorption, DVS Method
Instrument model: SMS DVS Advantage dynamic vapor sorption apparatus
Test conditions: The sample (10 to 15 mg) is weighed and placed in a DVS sample pan for testing.
The detailed DVS parameters are as follows:
Equilibration: dm/dt=0.01%/min (The shortest time: 10 min, and the longest time: 180 min)
Drying: Dried for 120 min at 0% RH
RH (%) test gradient: 10%
Range of RH (%) test gradient: 0%-90%-0%
The classification of hygroscopicity evaluation is as follows:
10-15 mg of the crystal form A and the crystal form C of the compound of formula (II) were weighed and placed into a DVS sample pan for testing.

[2] = Water activity assay (stability of the crystal form in water with different activities); details: methanol/water, stirred two days, XRPD
Procedure: The stability of the crystal form in water with different activities was determined.
About 30 mg of the crystal form A of the compound of formula (II) was weighed and placed in a 1.5 mL liquid phase vial. A magnetic bar was added, and an appropriate amount of water activity agent in a system of methanol and water was pipetted into the liquid phase vial. The suspension sample was mixed well and then placed on a magnetic stirrer (25° C., 700 rpm). After stirring for two days, the wet sample was determined by XRPD.

[3] = Solubility assay in media with different pHs; details: for Solubility (24 hours) / Solubility (2 hours): 37° C.; for Final pH: filtrate of saturated solution
Procedure: (§1) 9 parts of 4 mg of the crystal form A of the compound of formula (II) were weighed and added to a 1.5 mL sample bottle, respectively, and then 1 mL of different media (0.1 mol/L HCl, 0.01 mol/L HCl, pH3.8 buffer solution, pH4.5 buffer solution, pH5.5 buffer solution, pH6.0 buffer solution, pH6.8 buffer solution, pH7.4 buffer solution, and water) were added, respectively. Based on the dissolution situation, the raw material compound was continuously added until a saturated solution was formed. The magnetic bar was added to the above suspension, and the suspension was placed on a magnetic stirrer (37° C., protected from light) and stirred. […] The upper layer of the sample was filtered with a filter membrane, and the pH value of the filtrate was determined. The saturated solubility of the compound was determined by HPLC.
as §1, with “C” for “A”

[4] = Stability assay under illumination, high humidity, high temperature and acceleration (related substances and crystal form); parameters: Total impurity: unit not given here; details: for Change of crystal form: 17 days
Procedure: The stability of crystal form of the crystal form A and the crystal form C of the compound of formula (II) under the conditions of illumination, high humidity (92.5% RH), high temperature (60° C.) and acceleration (40° C./75% RH) was investigated.
Illumination test chamber, model: SHH-100GD-2, conditions: 5000±500 lux (visible light) and 90 mw/cm^2 (ultraviolet).
Electrothermal blowing dry box, model: GZX-9140MBE, conditions: 60° C.
Constant temperature and humidity chamber, model: LDS-800Y, conditions: 40° C./75% RH.
Constant temperature and humidity chamber, model: SHH-250SD, conditions: 25° C., 92.5% RH.
An appropriate amount of the crystal form A of the compound of formula (II) was weighed and placed in a dry and clean weighing bottle. The sample was spread into a thin layer, and fully exposed to assay conditions (60° C., 92.5% RH, illumination) and acceleration conditions (40° C./75% RH). After 17 days, the compound was taken out and determined for related substances and crystal form. […]

Structure (SMILES): COc1cc2ncnc(Nc3cccc(Cl)c3F)c2cc1N1CC2(CN(C)C2)OC1=O.Cc1ccc(S(=O)(=O)O)cc1 [crystal form A of the compound of formula (II)]
- ΔW (weight increase by moisture absorption) ([1]; 25° C. and 80% RH): 1.329%
- Classification of hygroscopicity ([1]; 25° C., 80% RH): slightly hygroscopic
- Crystal form change in water activity assay ([2]; water activity 0.1 and 0.3, 25° C.): not changed
- Crystal form change in water activity assay ([2]; water activity greater than 0.3, 25° C.): changed to the crystal form C
- Solubility (24 hours) ([3]; 0.01 mol/L HCl): 7941 µg/mL
- Solubility (conclusion) ([3]; buffer solutions below pH 6.8 and purified water): high solubility
- Final pH ([3]; 0.01 mol/L HCl): 3.59
- Final pH ([3]; pH 3.8 buffer solution): 3.988
- Final pH ([3]; pH 4.5 buffer solution): 4.531
- Final pH ([3]; pH 5.5 buffer solution): 5.499
- Final pH ([3]; pH 6.0 buffer solution): 5.900
- Final pH ([3]; pH 6.8 buffer solution): 6.588
- Final pH ([3]; pH 7.4 buffer solution): 7.096
- Final pH ([3]; water): 5.296
- Evaluation of dissolution property ([3]; merged cell: 0.1 mol/L HCl, 0.01 mol/L HCl, pH 3.8, 4.5, 5.5, 6.0 buffer solutions and water): High solubility
- Evaluation of dissolution property ([3]; merged cell: pH 6.8 and pH 7.4 buffer solutions): Low solubility
- Solubility (2 hours) ([3]; pH 3.8 buffer solution): 3749 µg/mL
- Solubility (24 hours) ([3]; pH 3.8 buffer solution): 3645 µg/mL
- Solubility (2 hours) ([3]; pH 4.5 buffer solution): 3824 µg/mL
- Solubility (24 hours) ([3]; pH 4.5 buffer solution): 3141 µg/mL
- Solubility (2 hours) ([3]; pH 5.5 buffer solution): 3571 µg/mL
- Solubility (2 hours) ([3]; pH 6.0 buffer solution): 3785 µg/mL
- Solubility (24 hours) ([3]; pH 6.0 buffer solution): 3638 µg/mL
- Solubility (2 hours) ([3]; water): 2720 µg/mL
- Stability compared with the crystal form D of the maleate of the compound of formula (I) [4]: better
- Related substance at relative retention time 0.24 ([4]; 40° C. - 75% RH - 17 days): 0.03
- Related substance at relative retention time 0.67 ([4]; 40° C. - 75% RH - 17 days): 0.16
- Related substance at relative retention time 0.88 ([4]; 40° C. - 75% RH - 17 days): 0.04
- Related substance at relative retention time 0.92 ([4]; 40° C. - 75% RH - 17 days): 0.04
- Related substance at relative retention time 1.24 ([4]; 40° C. - 75% RH - 17 days): 0.15
- Related substance at relative retention time 1.30 ([4]; 40° C. - 75% RH - 17 days): 0.18
- Related substance at relative retention time 1.56 ([4]; 40° C. - 75% RH - 17 days): 0.04
- Related substance at relative retention time 1.76 ([4]; 40° C. - 75% RH - 17 days): 0.04
- Total impurity ([4]; 40° C. - 75% RH - 17 days): 0.66
- Related substance at relative retention time 0.24 ([4]; 60° C. - 17 days): 0.03
- Related substance at relative retention time 0.67 ([4]; 60° C. - 17 days): 0.91
- Related substance at relative retention time 0.88 ([4]; 60° C. - 17 days): 0.05
- Related substance at relative retention time 0.92 ([4]; 60° C. - 17 days): 0.03
- Related substance at relative retention time 1.24 ([4]; 60° C. - 17 days): 0.15
- Related substance at relative retention time 1.30 ([4]; 60° C. - 17 days): 0.16
- Related substance at relative retention time 1.56 ([4]; 60° C. - 17 days): 0.04
- Related substance at relative retention time 1.76 ([4]; 60° C. - 17 days): 0.07
- Total impurity ([4]; 60° C. - 17 days): 1.44
- Related substance at relative retention time 0.24 ([4]; 92.5% RH - 17 days): 0.03
- Related substance at relative retention time 0.67 ([4]; 92.5% RH - 17 days): 0.05
- Related substance at relative retention time 0.88 ([4]; 92.5% RH - 17 days): 0.04
- Related substance at relative retention time 0.92 ([4]; 92.5% RH - 17 days): 0.04
- Related substance at relative retention time 1.24 ([4]; 92.5% RH - 17 days): 0.14
- Related substance at relative retention time 1.30 ([4]; 92.5% RH - 17 days): 0.18
- Related substance at relative retention time 1.56 ([4]; 92.5% RH - 17 days): 0.04
- Related substance at relative retention time 1.76 ([4]; 92.5% RH - 17 days): 0.02
- Total impurity ([4]; 92.5% RH - 17 days): 0.54
- Related substance at relative retention time 0.24 ([4]; Illumination - 17 days): 0.03
- Related substance at relative retention time 0.67 ([4]; Illumination - 17 days): 0.07
- Related substance at relative retention time 0.88 ([4]; Illumination - 17 days): 0.04
- Related substance at relative retention time 0.92 ([4]; Illumination - 17 days): 0.05
- Related substance at relative retention time 1.24 ([4]; Illumination - 17 days): 0.13
- Related substance at relative retention time 1.30 ([4]; Illumination - 17 days): 0.17
- Related substance at relative retention time 1.56 ([4]; Illumination - 17 days): 0.04
- Total impurity ([4]; Illumination - 17 days): 0.46
- Related substance at relative retention time 0.24 ([4]; Initial sample): 0.03
- Related substance at relative retention time 0.67 ([4]; Initial sample): 0.05
- Related substance at relative retention time 0.88 ([4]; Initial sample): 0.03
- Related substance at relative retention time 1.24 ([4]; Initial sample): 0.15
- Related substance at relative retention time 1.30 ([4]; Initial sample): 0.18
- Related substance at relative retention time 1.56 ([4]; Initial sample): 0.04
- Total impurity ([4]; Initial sample): 0.53
- Change of crystal form ([4]; acceleration (40° C./75% RH)): not changed
- Change of crystal form ([4]; high humidity (92.5% RH)): changed
- Change of crystal form ([4]; high temperature (60° C.)): not changed
- Change of crystal form ([4]; illumination): not changed
- Formation of degradation impurity (conclusion) ([4]; illumination, high temperature, high humidity, acceleration): produces a degradation impurity only under the condition of high temperature
